Marks after values point to notes of the source that are not given here. Values belong to the molecule of their own block, whether it stands above or below them.
Columns and labels:
[1] = reported in non-patent reference 14; cited from earlier work
Solubility in solvents = assay type: physicochemical; conditions: methanol, chloroform, acetone, water, hexane
[2] = system: ICAM-1 expressed on HUVEC; experiment: Test about suppression of ICAM-1 expression (enzyme immuno assay, EIA), TNF-α-stimulated HUVEC; assay type: cell-based; conditions: Homo sapiens, TNF-α 0.3 ng/ml
Description: Using a culture broth containing serum for vascular endothelial cell (manufactured by Nissui Pharmaceutical Co., Ltd.) as a culture medium, HUVEC (umbilical vein endothelial cell manufactured by Morinaga Bioscience Institute) was cultured in a collagen-treated flask by the routine method.
For carrying out a test about the suppression of ICAM-1 expression with HUVEC, a collagen-treated 96-well plate was used, where HUVEC was added at 1 to 2×10^4 cells/well while the culture medium was added at 100 to 200 μl/well. The cell was cultured in 5% CO2 at 37° C. for 48 to 72 hours. Before adding a test solution, the culture medium (80 μl) was exchanged, to which 10 μl of a test solution preliminarily diluted was then added. The plate was allowed to stand alone in a CO2 incubator. 2 hours later, 10 μl of TNF-α (recombinant human TNF-α, manufactured by Genzyme) was added (to a final concentration of 0.3 ng/ml). The resulting plate was again allowed to stand alone in the CO2 incubator. 16 to 22 hours later, the cell was fixed with 1% p-formaldehyde solution. The cell was rinsed with a phosphate buffer containing Ca^2+ and Mg^2+, which was then treated with an anti-human ICAM-1 antibody (mouse IgG1, manufactured by Kyowa Medics) at ambient temperature for 30 minutes. After the cell was rinsed again with the phosphate buffer, the cell was treated with a peroxide-labeled anti-mouse IgG (H+L) (manufactured by Organon Teknik Corp.) for another 30 minutes. After the cell was again rinsed with the phosphate buffer, the color developed was measured, using a peroxidase chromogenic kit (manufactured by Sumitomo Bakelite Co., Ltd.), to determine ICAM-1 expressed on HUVEC as an expression-inhibiting ratio (%) to a non-drug group to calculate the IC50 value.

[3] = system: AsPC-1 (human pancreas cancer cell); experiment: Test about the suppression of cell growth (MTT); assay type: cell-based; conditions: ASPC1, 72 h, AsPC-1, 3 days
Description: (§1) Various cancer cells and normal cell as cultured in a culture broth to 70 to 90% confluency were used. After the culture broth was removed, 0.25% trypsin/1 mM-EDTA solution was added to scrape off the cells and count the cells. Then, a cell suspension of 5×10^4 cells/ml was prepared. The suspension was divided at 90 μl/well into a 96-well plate, and allowed to stand alone in a CO2 incubator. On the next day, (a 0 to 10 μM test drug (the compound of Example 5) was added at 10 μl/well, for gentle shaking for sufficiently mixing the test drug with the liquid culture. After culturing for 3 days, each 10-μl portion of aqueous 5 mg/ml MTT (3-(4,5-dimethylthiazol-2-yl)-2,5-diphenyltetrazolium bromide) solution was added. After culturing in the CO2 incubator for another 4 hours, 100 μl of a 2-propanol solution containing 0.04N hydrochloric acid was added to each well, for terminating the reaction. The generated MTT formazan was sufficiently dissolved with a multi-channel pipette, to measure the absorbance at 595 nm, using a control wavelength of 655 nm. The measured absorbance was analyzed by non-linear regression analysis using a model formula by the MTT method, to calculate the concentration at which the cell growth was inhibited by 50% (IC50). The cells used at this test and the culture broths therefor are as shown below. • 1) Cell: A549 (human lung cancer cell, Human Science Foundation) • Culture broth: DMEM (Dulbecco's modified Eagle medium)+10% FBS (fetal bovine serum) • 2) Cell: PC-3 (human prostate cancer cell, ATCC) • Culture broth: DMEM+10% FBS • 3) Cell: AsPC-1 (human pancreas cancer cell, Tokyo University) • Culture broth: DMEM+10% FBS • 4) Cell: HT-1080 (human fibrosarcoma cell, ATCC) • Culture broth: DMEM+10% FBS • 5) Cell: Hepatocyte (normal human liver cell, ACRBI) • Culture broth: CS-C (Cell Systems) • 6) Cell: NHDF (normal human fibroblast cell, Kurabo) • Culture broth: DMEM+10% FBS • 7) Cell: BAE (normal bovine aorta vascular endothelial cell, ACRBI) • Culture broth: CS-C (Cell systems)

[4] = system: BAE (normal bovine aorta vascular endothelial cell); experiment: Test about the suppression of cell growth (MTT); assay type: cell-based; conditions: Bos taurus, 72 h, 3 days
Description: as §1

[5] = system: NHDF (normal human fibroblast cell); experiment: Test about the suppression of cell growth (MTT); assay type: cell-based; conditions: 72 h, 3 days
Description: as §1

[6] = system: A549 (human lung cancer cell); experiment: Test about the suppression of cell growth (MTT); assay type: cell-based; conditions: 72 h, A549, 3 days
Description: as §1

[7] = system: Hepatocyte (normal human liver cell); experiment: Test about the suppression of cell growth (MTT); assay type: cell-based; conditions: 72 h, 3 days
Description: as §1

[8] = system: PC-3 (human prostate cancer cell); experiment: Test about the suppression of cell growth (MTT); assay type: cell-based; conditions: 72 h, PC-3, 3 days
Description: as §1

[9] = system: HT-1080 (human fibrosarcoma cell); experiment: Test about the suppression of cell growth (MTT); assay type: cell-based; conditions: 72 h, HT-1080, 3 days
Description: as §1

[10] = system: collagen-induced arthritis, DBA/1J mouse; experiment: Test using collagen arthritis model in mouse; assay type: in vivo; conditions: 30 mg/kg, oral daily after secondary sensitization, two weeks after secondary sensitization, non-drug group 5.7
Description: Type II collagen derived from bovine joint was dissolved in 0.1 M acetate saline to 2 mg/ml, with which an equal volume of the complete Freund's adjuvant (manufactured by Iatron) was mixed, to prepare an emulsion. For primary sensitization, the emulsion was injected intracutaneously into the tail root of a 8-week-old male DBA/1J mouse. Twenty-one days thereafter, 0.1 ml of an emulsion prepared in the same manner was intracutaneously injected into the dorsal part of the mouse, for secondary sensitization, to trigger the onset of arthritis. Two weeks after the secondary sensitization, the symptoms of arthritis were visually observed (0: normal; 1: swelling and reddening of finger tips; 2: mild swelling and reddening of parts distal from joints of hands and foots; 3: severe swelling and reddening of parts distal from joints of hands and foots). The symptoms of arthritis were observed individually over the four limbs. The total was defined as the arthritis score of an individual. Further, a test drugs was suspended in 0.5% methyl cellulose and orally given daily after the secondary sensitization.

[11] = system: footpad thickness, MeHSA-sensitized C57BL/6 mouse; experiment: Methylated human serum albumin-induced delayed hypersensitivity test (MeHSA-DTH); assay type: in vivo; conditions: oral, twice, footpad thickness 24 hours after induction
Description: Methylated human serum albumin (MeHSA) was dissolved in physiological saline to 5 mg/ml, which was then mixed with an equal volume of the complete Freund's adjuvant (manufactured by Iatron), to prepare an emulsion. Next, 100 μl of the prepared emulsion was injected subcutaneously into a 8-week-old male C57BL/6 mouse, for antigen sensitization. Seven days thereafter, MeHSA was dissolved in physiological saline to 1 mg/ml, which was injected at 25 μl subcutaneously into the footpad of the right hind limb, to trigger a reaction. The thickness of the footpad was measured 24 hours after the induction of the reaction, to calculate the difference from the thickness thereof before the induction of the reaction, to make an assessment. Additionally, drugs were orally given twice, namely one hour before the induction of the reaction and 16 hours after the induction thereof.

SMILES: COC(=O)/C=C/C=C/[C@@H]1[C@H]2[C@H](C)[C@@H](O)[C@H](C)C[C@@H]2C=C[C@@H]1C [Coprophilin]
Antibacterial activity [1]: has an antibacterial activity

SMILES: C/C(=C\C=C\[C@@H]1[C@H]2[C@H](C)[C@@H](O)[C@H](C)C[C@@H]2C=C[C@@H]1C)C(=O)O [Example 1, (2E,4E)-5-[(1S,2S,4aR,6R,7S,8S,8aS)-7-hydroxy-2,6,8-trimethyl-1,2,4a,5,6,7,8,8a-octahydronaphthalen-1-yl]-2-methylpenta-2,4-dienoic acid]
Solubility (Solubility in solvents): soluble in methanol, chloroform and acetone but insoluble in water and hexane
IC50 [2]: 59000 nM

melting point: 54 to 57 °C
SMILES: COC(=O)/C(C)=C/C=C/[C@@H]1[C@H]2[C@H](C)[C@@H](O)[C@H](C)C[C@@H]2C=C[C@@H]1C [Example 2, Methyl (2E,4E)-5-[(1S,2S,4aR,6R,7S,8S,8aS)-7-hydroxy-2,6,8-trimethyl-1,2,4a,5,6,7,8,8a-octahydronaphthalen-1-yl]-2-methylpenta-2,4-dienoate]
IC50 [2]: 670 nM

IC50 [3]: 113 nM
IC50 [6]: 85 nM
IC50 [8]: 67 nM
IC50 [9]: 70 nM
SMILES: C/C(=C\C=C\[C@@H]1[C@H]2[C@H](C)[C@@H](O)[C@H](C)C[C@@H]2C=C[C@@H]1C)C(=O)NCc1cccnc1 [Example 5, N-(Pyridin-3-ylmethyl)-(2E,4E)-5-[(1S,2S,4aR,6R,7S,8S,8aS)-7-hydroxy-2,6,8-trimethyl-1,2,4a,5,6,7,8,8a-octahydronaphthalen-1-yl]-2-methylpenta-2,4-dienamide]
IC50 [4]: 9400 nM
IC50 [5]: 600 nM
IC50 [7]: 430 nM
Arthritis score [10]: 2.1*
IC50 [2]: 170 nM
Suppression ratio (%) ([11]; 10 mg/kg): 27.5* %
Suppression ratio (%) ([11]; 30 mg/kg): 51.5** %

SMILES: C/C(=C\C=C\[C@@H]1[C@H]2[C@H](C)[C@@H](O)[C@H](C)C[C@@H]2C=C[C@@H]1C)C(=O)NCc1ccncc1 [Example 6, N-(Pyridin-4-ylmethyl)-(2E,4E)-5-[(1S,2S,4aR,6R,7S,8S,8aS)-7-hydroxy-2,6,8-trimethyl-1,2,4a,5,6,7,8,8a-octahydronaphthalen-1-yl]-2-methylpenta-2,4-dienamide]
IC50 [2]: 590 nM
Suppression ratio (%) ([11]; 10 mg/kg): 27.8* %
Suppression ratio (%) ([11]; 30 mg/kg): 35.7** %

SMILES: CCCCNC(=O)/C(C)=C/C=C/[C@@H]1[C@H]2[C@H](C)[C@@H](O)[C@H](C)C[C@@H]2C=C[C@@H]1C [Example 18, N-(n-Butyl)-(2E,4E)-5-[(1S,2S,4aR,6R,7S,8S,8aS)-7-hydroxy-2,6,8-trimethyl-1,2,4a,5,6,7,8,8a-octahydronaphthalen-1-yl]-2-methylpenta-2,4-dienamide]
IC50 [2]: 2400 nM

SMILES: C/C(=C\C=C\[C@@H]1[C@H]2[C@H](C)[C@@H](O)[C@H](C)C[C@@H]2C=C[C@@H]1C)C(=O)NC(C)(C)C [Example 19, N-(t-Butyl)-(2E,4E)-5-[(1S,2S,4aR,6R,7S,8S,8aS)-7-hydroxy-2,6,8-trimethyl-1,2,4a,5,6,7,8,8a-octahydronaphthalen-1-yl]-2-methylpenta-2,4-dienamide]
IC50 [2]: 15000 nM

SMILES: C/C(=C\C=C\[C@@H]1[C@H]2[C@H](C)[C@@H](O)[C@H](C)C[C@@H]2C=C[C@@H]1C)C(=O)N(C)C [Example 20, N,N-Dimethyl-(2E,4E)-5-[(1S,2S,4aR,6R,7S,8S,8aS)-7-hydroxy-2,6,8-trimethyl-1,2,4a,5,6,7,8,8a-octahydronaphthalen-1-yl]-2-methylpenta-2,4-dienamide]
IC50 [2]: 1400 nM

SMILES: C/C(=C\C=C\[C@@H]1[C@H]2[C@H](C)[C@@H](O)[C@H](C)C[C@@H]2C=C[C@@H]1C)C(=O)N(C)Cc1ccccc1 [Example 21, N-Benzyl-N-methyl-(2E,4E)-5-[(1S,2S,4aR,6R,7S,8S,8aS)-7-hydroxy-2,6,8-trimethyl-1,2,4a,5,6,7,8,8a-octahydronaphthalen-1-yl]-2-methylpenta-2,4-dienamide]
IC50 [2]: 4900 nM

SMILES: C/C(=C\C=C\[C@@H]1[C@H]2[C@H](C)[C@@H](O)[C@H](C)C[C@@H]2C=C[C@@H]1C)C(N)=O [Example 22, (2E,4E)-5-[(1S,2S,4aR,6R,7S,8S,8aS)-7-Hydroxy-2,6,8-trimethyl-1,2,4a,5,6,7,8,8a-octahydronaphthalen-1-yl]-2-methylpenta-2,4-dienamide]
IC50 [2]: 8800 nM

Source: patent US7884116B2, “Octahydronaphthalene derivative and medicine” (Nippon Shinyaku Co., Ltd., priority 2003, dated 2011)
